Test: xn = mol fraction of the nth substance listed
Conditions: 100.7 kPa, Liquid; for viscosity: Falling or rolling sphere viscometry; for speed of sound: Frequency=3 MHz, Sing-around technique in a fixed-path interferometer; for mass density: Vibrating tube method

CCCCN [1-butanamine] + CCCC[n+]1ccn(C)c1.O=S(=O)([N-]S(=O)(=O)C(F)(F)F)C(F)(F)F
Conditions | mass density, 298.15 K [kg/m3] | mass density, 303.15 K [kg/m3] | mass density, 308.15 K [kg/m3] | speed of sound, 298.15 K [m/s] | speed of sound, 303.15 K [m/s] | speed of sound, 308.15 K [m/s] | viscosity, 298.15 K [mPa·s] | viscosity, 303.15 K [mPa·s] | viscosity, 308.15 K [mPa·s]
x2 = 0 | 733.33 | 728.5 | 723.67 | 1246.5 | 1223.9 | 1201.3 | 0.47 | 0.44 | 0.41
x2 = 0.0261 | – | – | – | 1234 | 1212.2 | 1190.3 | – | – | –
x2 = 0.0486 | – | – | – | 1225.4 | 1204.5 | 1183.5 | – | – | –
x2 = 0.0804 | – | – | – | 1216.5 | 1196.3 | 1177.2 | – | – | –
x2 = 0.1026 | 916.12 | 911.59 | 907.02 | 1211.6 | 1192.1 | 1174.1 | 2.11 | 1.59 | 1.31
x2 = 0.2026 | 1042.14 | 1037.64 | 1033.16 | 1203.5 | 1186.4 | 1169 | 4.44 | 3.23 | 2.63
x2 = 0.3004 | 1134.03 | 1129.36 | 1124.87 | 1203.2 | 1187.1 | 1170.3 | 7.22 | 5.31 | 4.2
x2 = 0.4056 | 1209.89 | 1205.12 | 1200.55 | 1205.1 | 1190 | 1174.5 | 11.01 | 8.35 | 6.58
x2 = 0.5051 | 1266.69 | 1262.02 | 1257.23 | 1208 | 1193.8 | 1178.9 | 14.99 | 11.71 | 9.28
x2 = 0.6119 | 1316.23 | 1311.69 | 1306.91 | 1212 | 1198.9 | 1184.8 | 20.24 | 16.01 | 12.71
x2 = 0.7025 | 1351.49 | 1346.8 | 1342.12 | 1215.1 | 1203 | 1189.6 | 25.4 | 20.08 | 16.01
x2 = 0.8002 | 1383.95 | 1379.23 | 1374.49 | 1218.1 | 1208 | 1195.6 | 32.04 | 25.55 | 20.49
x2 = 0.9015 | 1412.83 | 1408.07 | 1403.3 | 1222.9 | 1212.9 | 1200.9 | 40.3 | 32.07 | 26.13

Source: the NIST ThermoML archive (doi:10.1016/j.jct.2015.09.022)
